Laboratory results taken from the supplement of paper PMC4862054.

Columns and labels:
Conditions in all cases: incubation time: 72 h
CAL-120 = assay: drug sensitivity score (DSS), CellTiter-Glo (DSS (AUC-based score)); higher = stronger drug effect (viability inhibition or cytotoxicity); extreme values may be limits of the assay
In short: (§1)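 Plates with 384 wells held compound at 5 concentrations in 10-fold steps over a 10,000-fold range specific to each compound. Breast cancer cell lines were added in 20 µl suspension and incubated 72 h, then read for CellTox Green and CellTiter-Glo signals, with each plate normalised to 0.1 % DMSO and a positive kill control. The drug sensitivity score is based on the area under the fitted dose-response curve.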

CAL-85-1 [1] = assay: as above
In short: as §1

DU-4475 [2] = assay: as above
In short: as §1

HCC1143 [3] = assay: as above
In short: as §1

HCC1937 [4] = assay: as above
In short: as §1

Hs578T [5] = assay: as above
In short: as §1

MCF-10A [6] = assay: as above
In short: as §1

MDA-MB-231 [7] = assay: as above
In short: as §1

MDA-MB-453 [8] = assay: as above
In short: as §1

MDA-MB-468 [9] = assay: as above
In short: as §1

SK-BR-3 = assay: as above
In short: as §1

BT-474 = assay: drug sensitivity score (DSS), CellTox Green (DSS (AUC-based score)); higher = stronger drug effect (viability inhibition or cytotoxicity); extreme values may be limits of the assay
In short: as §1

BT-549 = assay: as above
In short: as §1

CAL-51 = assay: as above
In short: as §1

CAL-85-1 [10] = assay: as above
In short: as §1

DU-4475 [11] = assay: as above
In short: as §1

HCC1143 [12] = assay: as above
In short: as §1

HCC1599 = assay: as above
In short: as §1

HCC1937 [13] = assay: as above
In short: as §1

HDQ-P1 = assay: as above
In short: as §1

Hs578T [14] = assay: as above
In short: as §1

MCF-10A [15] = assay: as above
In short: as §1

MDA-MB-231 [16] = assay: as above
In short: as §1

MDA-MB-436 = assay: as above
In short: as §1

MDA-MB-453 [17] = assay: as above
In short: as §1

MDA-MB-468 [18] = assay: as above
In short: as §1

MFM-223 = assay: as above
In short: as §1

SMILES	drug sensitivity score (CAL-120)	drug sensitivity score (CAL-85-1 [1])	drug sensitivity score (DU-4475 [2])	drug sensitivity score (HCC1143 [3])	drug sensitivity score (HCC1937 [4])	drug sensitivity score (Hs578T [5])	drug sensitivity score (MCF-10A [6])	drug sensitivity score (MDA-MB-231 [7])	drug sensitivity score (MDA-MB-453 [8])	drug sensitivity score (MDA-MB-468 [9])	drug sensitivity score (SK-BR-3)	drug sensitivity score (BT-474)	drug sensitivity score (BT-549)	drug sensitivity score (CAL-51)	drug sensitivity score (CAL-85-1 [10])	drug sensitivity score (DU-4475 [11])	drug sensitivity score (HCC1143 [12])	drug sensitivity score (HCC1599)	drug sensitivity score (HCC1937 [13])	drug sensitivity score (HDQ-P1)	drug sensitivity score (Hs578T [14])	drug sensitivity score (MCF-10A [15])	drug sensitivity score (MDA-MB-231 [16])	drug sensitivity score (MDA-MB-436)	drug sensitivity score (MDA-MB-453 [17])	drug sensitivity score (MDA-MB-468 [18])	drug sensitivity score (MFM-223)
CO[C@H]1/C=C\C=C(/C)C(=O)NC2=CC(=O)C(NCCN(C)C)=C(C[C@@H](C)C[C@H](OC)[C@H](O)[C@@H](C)/C=C(\C)[C@@H]1OC(N)=O)C2=O [Alvespimycin]	8.6	13.9	17.6	12.1	12.6	10.6	14.9	13.3	15.3	11.9	14.5	4.58	0	6.02	6.41	4.5	9.99	0	1.6	4.4	7.05	13	7.29	0	0.783	1.6	0
CCC1(c2ccc(N)cc2)CCC(=O)NC1=O (stereo unspecified) [Aminoglutethimide]	0	0	0	0	0	0	0	0	0	0	0	0	0	0	0	0	0	0	0	0	0	0	0	0	0	0	0
COc1cc2nccc(Oc3ccc(NC(=O)C4(C(=O)Nc5ccc(F)cc5)CC4)cc3)c2cc1OC [Cabozantinib]	0	0	0	0	0	0	0	0	0	0	0	0	0	0	0	0	0	0	0	0	0	0	0	0	0	0	0
CN(C)/N=N/c1[nH]cnc1C(N)=O [Dacarbazine]	0.483	0	0	0	0	0	0	0	0	0	0	0	0	0	0	0	0	0	3.14	0	0	0	0	0	0	0	0
COc1cc2ncnc(Nc3ccc(F)c(Cl)c3)c2cc1NC(=O)/C=C/CN1CCCCC1 [Dacomitinib]	0	8.62	0	0	0	0	16.9	0.139	5.43	3.31	14.6	6.2	0	0	4.64	0	0	0	0	0	0	0	0	2.58	0	0	0
Cc1ccc(-n2nc(C(C)(C)C)cc2NC(=O)Nc2ccc(OCCN3CCOCC3)c3ccccc23)cc1 [Doramapimod]	0	0	0	0	0	0	0	0	1.59	2.44	0	0	0	0	0	0	0	0	0	0	3.19	0	0	2.62	0	0	0
COc1cc([C@@H]2c3cc4c(cc3[C@@H](O[C@@H]3O[C@@H]5CO[C@@H](C)O[C@H]5[C@H](O)[C@H]3O)[C@H]3COC(=O)[C@H]23)OCO4)cc(OC)c1O [Etoposide]	2.02	0.96	9.9	4.37	0	2.84	0	0.846	0	5.45	9.09	0	0	9.25	1.64	0.895	0	0	0	0	20.3	0	0	0	0	7.2	0
N#CCNC(=O)c1ccc(-c2ccnc(Nc3ccc(N4CCOCC4)cc3)n2)cc1 [Momelotinib]	5.07	4.3	0	1.42	0	4.38	5.18	4.43	0	5.4	2.75	0	2.78	0	4.03	0	0	0	0	0	0	0	7.53	0	0	2.22	0
CCCCCCCCCCCCCCCCCCOP(=O)([O-])OC1CC[N+](C)(C)CC1 [Perifosine]	0	0	0	0	0.853	0	0.579	0	0	0	0	0	0	0	0	0	0	0	0	0	0	0	0	0	0	0	0
CS(=O)(=O)c1ccc(C2=C(c3ccccc3)C(=O)OC2)cc1 [Rofecoxib]	0	0	0	0	0	0	0	0	0	0	0	1.58	0	0	0	0	0	0	1.95	0	0	0	0	0	0	3.77	0
CNCc1ccc(-c2[nH]c3cc(F)cc4c3c2CCNC4=O)cc1 [Rucaparib]	0	0	0	0	0	0	0	0	0	2.43	0	0	0	0	0	0	0	0	0	0	1.33	0	0	0	0	10.6	0
N[C@@H](CSC(c1ccccc1)(c1ccccc1)c1ccccc1)C(=O)O [S-trityl-L-cysteine]	0	0	0	0	0	0	0	0	0	0	0	0	0	0	0	0	0	0	3.46	0	0	0	0	0	0	0	0
CN(N=O)C(=O)N[C@@H](C=O)[C@@H](O)[C@H](O)[C@H](O)CO [Streptozocin]	0	0	0	0	0	0	0	0	0	0	0	0	0	0	0	0	0	0	0	0	0	0	0	0	0	3.14	0
